Legend:
Conditions in all cases: sulfur source concentration 200 µM; S. cerevisiae S288C/BY sul1Δ sul2Δ soa1Δ with transporter ortholog inserted at SOA1 locus; sulfur-free B medium, 4% glucose, pH 6.5, sole sulfur source
[1] = tested on: Metarhizium robertsii_XP_007823832; assay: maximal growth rate with compound as sole sulfur source (OD600 per h); higher = better growth / uptake of the sulfur source
Protocol: (§1)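 S. cerevisiae sul1Δ sul2Δ soa1Δ strains expressing 20 fungal SOA1 orthologs (or no transporter, 'soa1 del') were grown in liquid sulfur-free B medium, 4% glucose, pH 6.5 (7 mM K2HPO4). The strains were sulfur-starved for 3 days beforehand. Each sulfur compound was the sole sulfur source at 200 µM (sulfate also at 40 mM). OD600 curves of duplicate cultures were averaged and fitted (logistic / Richards, GroFit) to give maximal growth rate, maximal density and lag phase; temperature not stated.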

[2] = tested on: Aspergillus nidulans_CBF80346; assay: as above
Protocol: as §1

soa1 del [3] = assay: as above
Protocol: as §1

[4] = tested on: Aspergillus nidulans_XP_661733; assay: as above
Protocol: as §1

[5] = tested on: Aspergillus nidulans (IAM 2006)_astA; assay: as above
Protocol: as §1

[6] = tested on: Aspergillus nidulans_XP_681611; assay: as above
Protocol: as §1

[7] = tested on: Saccharomyces uvarum_SOA2; assay: as above
Protocol: as §1

[8] = tested on: Ogataea parapolymorpha_XP_013935289; assay: as above
Protocol: as §1

[9] = tested on: Ogataea parapolymorpha_XP_013932458; assay: as above
Protocol: as §1

[10] = tested on: Ogataea parapolymorpha_XP_013936897; assay: as above
Protocol: as §1

[11] = tested on: Saccharomyces eubayanus_SOA1; assay: maximal culture density with compound as sole sulfur source (OD600); higher = better growth
Protocol: as §1

[12] = tested on: Saccharomyces uvarum_SOA1; assay: as above
Protocol: as §1

[13] = tested on: Metarhizium robertsii_XP_007823832; assay: as above
Protocol: as §1

[14] = tested on: Aspergillus nidulans_CBF80346; assay: as above
Protocol: as §1

[15] = tested on: Aspergillus nidulans_CBF74694; assay: as above
Protocol: as §1

soa1 del [16] = assay: as above
Protocol: as §1

[17] = tested on: Aspergillus nidulans_XP_661733; assay: as above
Protocol: as §1

[18] = tested on: Aspergillus nidulans (IAM 2006)_astA; assay: as above
Protocol: as §1

[19] = tested on: Aspergillus nidulans_XP_660670; assay: as above
Protocol: as §1

[20] = tested on: Aspergillus nidulans_XP_660563; assay: as above
Protocol: as §1

[21] = tested on: Fusarium oxysporum_ENH65823; assay: as above
Protocol: as §1

[22] = tested on: Aspergillus nidulans_XP_681611; assay: as above
Protocol: as §1

[23] = tested on: Saccharomyces uvarum_SOA2; assay: as above
Protocol: as §1

[24] = tested on: Saccharomyces eubayanus_SOA2; assay: as above
Protocol: as §1

[25] = tested on: Aspergillus nidulans_XP_661711; assay: as above
Protocol: as §1

[26] = tested on: Metarhizium robertsii_XP_007822519; assay: as above
Protocol: as §1

[27] = tested on: Ogataea parapolymorpha_XP_013935289; assay: as above
Protocol: as §1

[28] = tested on: Ogataea parapolymorpha_XP_013932458; assay: as above
Protocol: as §1

[29] = tested on: Ogataea parapolymorpha_XP_013936897; assay: as above
Protocol: as §1

[30] = tested on: Saccharomyces cerevisiae_SOA1; assay: as above
Protocol: as §1

[31] = tested on: Metarhizium robertsii_XP_007821441; assay: as above
Protocol: as §1

[32] = tested on: Saccharomyces eubayanus_SOA1; assay: lag phase before growth; higher = slower start of growth
Protocol: as §1

[33] = tested on: Saccharomyces uvarum_SOA1; assay: as above
Protocol: as §1

[34] = tested on: Saccharomyces uvarum_SOA2; assay: as above
Protocol: as §1

[35] = tested on: Ogataea parapolymorpha_XP_013935289; assay: as above
Protocol: as §1

[36] = tested on: Saccharomyces cerevisiae_SOA1; assay: as above
Protocol: as §1

[37] = tested on: Metarhizium robertsii_XP_007822519; assay: as above
Protocol: as §1

SMILES | maximal growth rate [1] | maximal growth rate [2] | maximal growth rate (soa1 del [3]) | maximal growth rate [4] | maximal growth rate [5] | maximal growth rate [6] | maximal growth rate [7] | maximal growth rate [8] | maximal growth rate [9] | maximal growth rate [10] | maximal culture density [11] | maximal culture density [12] | maximal culture density [13] | maximal culture density [14] | maximal culture density [15] | maximal culture density (soa1 del [16]) | maximal culture density [17] | maximal culture density [18] | maximal culture density [19] | maximal culture density [20] | maximal culture density [21] | maximal culture density [22] | maximal culture density [23] | maximal culture density [24] | maximal culture density [25] | maximal culture density [26] | maximal culture density [27] | maximal culture density [28] | maximal culture density [29] | maximal culture density [30] | maximal culture density [31] | lag phase before growth [32] [h] | lag phase before growth [33] [h] | lag phase before growth [34] [h] | lag phase before growth [35] [h] | lag phase before growth [36] [h] | lag phase before growth [37] [h]
CCCCS(=O)(=O)O [Butanesulfonate] | 0.0152 | 0.00447 | 0.00398 | 0.00595 | 0.0185 | 0.00666 | 0.0878 | 0.087 | 0.00411 | 0.0049 | 1.57 | 1.59 | 0.604 | 0.26 | 0.2 | 0.247 | 0.279 | 0.596 | 0.267 | 0.355 | 0.241 | 0.368 | 1.71 | 1.69 | 0.267 | 0.261 | 1.6 | 0.274 | 0.323 | 1.58 | 0.246 | 9.71 | 8.4 | 12.7 | 6.98 | 9.34 | 
CCS(=O)(=O)O [Ethanesulfonate] | 0.0141 | 0.00396 | 0.00466 | 0.00379 | 0.0175 | 0.00641 | 0.081 | 0.0784 | 0.00424 | 0.00513 | 1.58 | 1.59 | 0.494 | 0.22 | 0.182 | 0.215 | 0.238 | 0.477 | 0.209 | 0.314 | 0.197 | 0.319 | 1.76 | 1.75 | 0.209 | 1.6 | 1.58 | 0.237 | 0.296 | 1.58 | 0.214 | 9.96 | 9.26 | 15.6 | 8.69 | 10.3 | 7.36

From the supplement of paper PMC5303821, “Major sulfonate transporter Soa1 in Saccharomyces cerevisiae and considerable substrate diversity in its fungal family” (Nature Communications, 2017)
